From ChEMBL document CHEMBL4251572, “Novel aminopyrimidinyl benzimidazoles as potentially antimicrobial agents: Design, synthesis and biological evaluation” (Eur J Med Chem, 2018)
≈ marks a conversion by molar mass, not a printed value.

Experiments:
[1] = tested on: Saccharomyces cerevisiae; experiment: Antifungal against Saccharomyces cerevisiae after 24 hrs by two fold serial dilution method; format: functional
[2] = tested on: Staphylococcus aureus; experiment: Antibacterial activity against methicillin-resistant Staphylococcus aureus N315 after 24 hrs by micro broth dilution assay; format: functional; conditions: N315, 24 h
[3] = tested on: Aspergillus flavus; experiment: Antifungal against Aspergillus flavus after 24 hrs by two fold serial dilution method; format: functional
[4] = tested on: Salmonella typhi; experiment: Antibacterial activity against Bacillus typhi after 24 hrs by micro broth dilution assay; format: functional, Salmonella enterica subsp. enterica serovar Typhi; conditions: Salmonella enterica
[5] = tested on: Pseudomonas aeruginosa; experiment: Antibacterial activity against Pseudomonas aeruginosa after 24 hrs by micro broth dilution assay; format: functional
[6] = tested on: Staphylococcus aureus; experiment: Antibacterial activity against methicillin-resistant Staphylococcus aureus N315 incubated for 24 hrs followed by plating onto tryptic soy agar medium and measured after 24 hrs; format: functional; conditions: N315, 24 h
[7] = tested on: Pichia norvegensis; experiment: Antifungal against Candida mycoderma after 24 hrs by two fold serial dilution method; format: functional
[8] = tested on: Staphylococcus aureus; experiment: Ratio of MBC for methicillin-resistant Staphylococcus aureus N315 to MIC for methicillin-resistant Staphylococcus aureus N315; format: functional
[9] = tested on: Staphylococcus aureus; experiment: Antibacterial activity against Staphylococcus aureus ATCC 25923 after 24 hrs by micro broth dilution assay; format: functional; conditions: ATCC 25923, 24 h
[10] = tested on: Staphylococcus aureus; experiment: Ratio of MBC for Staphylococcus aureus ATCC 25923 to MIC for Staphylococcus aureus ATCC 25923; format: functional
[11] = tested on: Shigella dysenteriae; experiment: Antibacterial activity against Shigella dysenteriae after 24 hrs by micro broth dilution assay; format: functional
[12] = tested on: Staphylococcus aureus; experiment: Antibacterial activity against Staphylococcus aureus ATCC 25923 incubated for 24 hrs followed by plating onto tryptic soy agar medium and measured after 24 hrs; format: functional; conditions: ATCC 25923, 24 h
[13] = tested on: Pseudomonas aeruginosa; experiment: Antibacterial activity against Pseudomonas aeruginosa incubated for 24 hrs followed by plating onto tryptic soy agar medium and measured after 24 hrs; format: functional
[14] = tested on: Escherichia coli; experiment: Antibacterial activity against Escherichia coli DH52 after 24 hrs by micro broth dilution assay; format: functional; conditions: DH52, 24 h
[15] = tested on: Escherichia coli; experiment: Antibacterial activity against Escherichia coli JM109 after 24 hrs by micro broth dilution assay; format: functional; conditions: JM109, 24 h
[16] = tested on: Candida albicans; experiment: Antifungal against Candida albicans ATCC 76615 after 24 hrs by two fold serial dilution method; format: functional; conditions: ATCC 76615, 24 h
[17] = tested on: Bacillus subtilis; experiment: Antibacterial activity against Bacillus subtilis after 24 hrs by micro broth dilution assay; format: functional
[18] = tested on: Cyberlindnera jadinii; experiment: Antifungal against Candida utilis after 24 hrs by two fold serial dilution method; format: functional; conditions: Williopsis jadinii
[19] = tested on: Micrococcus luteus; experiment: Antibacterial activity against Micrococcus luteus ATCC4698 after 24 hrs by micro broth dilution assay; format: functional; conditions: ATCC4698, 24 h
[20] = tested on: Bacillus; experiment: Antibacterial activity against Bacillus proteus ATCC 13315 after 24 hrs by micro broth dilution assay; format: functional; conditions: ATCC 13315, 24 h
[21] = tested on: Pseudomonas aeruginosa; experiment: Ratio of MBC for Pseudomonas aeruginosa to MIC for Pseudomonas aeruginosa; format: functional

Structure (SMILES) | MIC [1] | MIC [2] | MIC [3] | MIC [4] | MIC [5] | MBC [6] | MIC [7] | Ratio [8] | MIC [9] | Ratio [10] | MIC [11] | MBC [12] | MBC [13] | MIC [14] | MIC [15] | MIC [16] | MIC [17] | MIC [18] | MIC [19] | MIC [20] | further results
CCCCn1c(-c2cc(-c3ccc(C)cc3)nc(N)n2)nc2ccccc21 | 32 µg/mL (≈ 89.5 µM) | 16 µg/mL (≈ 44.8 µM) | 64 µg/mL (≈ 179 µM) | 32 µg/mL (≈ 89.5 µM) | 8 µg/mL (≈ 22.4 µM) | 16 µg/mL (≈ 44.8 µM) | 8 µg/mL (≈ 22.4 µM) | 1 | 8 µg/mL (≈ 22.4 µM) | 4 | 16 µg/mL (≈ 44.8 µM) | 32 µg/mL (≈ 89.5 µM) | 16 µg/mL (≈ 44.8 µM) | 32 µg/mL (≈ 89.5 µM) | 16 µg/mL (≈ 44.8 µM) | 128 µg/mL (≈ 358 µM) | 16 µg/mL (≈ 44.8 µM) | 4 µg/mL (≈ 11.2 µM) | 16 µg/mL (≈ 44.8 µM) | 16 µg/mL (≈ 44.8 µM) | –
CCCCCCCn1c(-c2cc(-c3ccc(C)cc3)nc(N)n2)nc2ccccc21 | 4 µg/mL (≈ 10 µM) | 32 µg/mL (≈ 80.1 µM) | 512 µg/mL (≈ 1280 µM) | 2 µg/mL (≈ 5.01 µM) | 4 µg/mL (≈ 10 µM) | 32 µg/mL (≈ 80.1 µM) | 512 µg/mL (≈ 1280 µM) | 1 | 512 µg/mL (≈ 1280 µM) | – | 4 µg/mL (≈ 10 µM) | > 512 µg/mL | 4 µg/mL (≈ 10 µM) | 4 µg/mL (≈ 10 µM) | 16 µg/mL (≈ 40 µM) | 32 µg/mL (≈ 80.1 µM) | 512 µg/mL (≈ 1280 µM) | 32 µg/mL (≈ 80.1 µM) | 8 µg/mL (≈ 20 µM) | 256 µg/mL (≈ 641 µM) | Ratio [21]: 1
CCCCCCn1c(-c2cc(-c3ccc(Cl)cc3)nc(N)n2)nc2ccccc21 | 512 µg/mL (≈ 1260 µM) | 32 µg/mL (≈ 78.8 µM) | 32 µg/mL (≈ 78.8 µM) | 128 µg/mL (≈ 315 µM) | 512 µg/mL (≈ 1260 µM) | 32 µg/mL (≈ 78.8 µM) | 8 µg/mL (≈ 19.7 µM) | 1 | 256 µg/mL (≈ 631 µM) | 2 | 64 µg/mL (≈ 158 µM) | 512 µg/mL (≈ 1260 µM) | > 512 µg/mL | 2 µg/mL (≈ 4.93 µM) | 16 µg/mL (≈ 39.4 µM) | 4 µg/mL (≈ 9.85 µM) | 128 µg/mL (≈ 315 µM) | 8 µg/mL (≈ 19.7 µM) | 2 µg/mL (≈ 4.93 µM) | 256 µg/mL (≈ 631 µM) | –
CCCCn1c(-c2cc(-c3ccc(F)cc3)nc(N)n2)nc2ccccc21 | 32 µg/mL (≈ 88.5 µM) | 256 µg/mL (≈ 708 µM) | 512 µg/mL (≈ 1420 µM) | 8 µg/mL (≈ 22.1 µM) | 512 µg/mL (≈ 1420 µM) | > 512 µg/mL | 8 µg/mL (≈ 22.1 µM) | – | 128 µg/mL (≈ 354 µM) | 2 | 8 µg/mL (≈ 22.1 µM) | 256 µg/mL (≈ 708 µM) | > 512 µg/mL | 8 µg/mL (≈ 22.1 µM) | 256 µg/mL (≈ 708 µM) | 512 µg/mL (≈ 1420 µM) | 1 µg/mL (≈ 2.77 µM) | 8 µg/mL (≈ 22.1 µM) | 512 µg/mL (≈ 1420 µM) | 64 µg/mL (≈ 177 µM) | –
CCCCCCn1c(C(=O)/C=C/c2ccc(F)cc2)nc2ccccc21 | 512 µg/mL (≈ 1460 µM) | 512 µg/mL (≈ 1460 µM) | 16 µg/mL (≈ 45.7 µM) | 512 µg/mL (≈ 1460 µM) | 512 µg/mL (≈ 1460 µM) | – | 512 µg/mL (≈ 1460 µM) | – | 512 µg/mL (≈ 1460 µM) | – | 256 µg/mL (≈ 731 µM) | – | – | 32 µg/mL (≈ 91.3 µM) | 512 µg/mL (≈ 1460 µM) | 256 µg/mL (≈ 731 µM) | 256 µg/mL (≈ 731 µM) | 512 µg/mL (≈ 1460 µM) | 16 µg/mL (≈ 45.7 µM) | 64 µg/mL (≈ 183 µM) | –
CCCCCCCn1c(-c2cc(-c3ccc(Cl)cc3Cl)nc(N)n2)nc2ccccc21 | 128 µg/mL (≈ 282 µM) | 512 µg/mL (≈ 1130 µM) | 256 µg/mL (≈ 563 µM) | 32 µg/mL (≈ 70.4 µM) | 64 µg/mL (≈ 141 µM) | > 512 µg/mL | 256 µg/mL (≈ 563 µM) | – | 256 µg/mL (≈ 563 µM) | 2 | 128 µg/mL (≈ 282 µM) | 512 µg/mL (≈ 1130 µM) | 128 µg/mL (≈ 282 µM) | 32 µg/mL (≈ 70.4 µM) | 512 µg/mL (≈ 1130 µM) | 4 µg/mL (≈ 8.8 µM) | 256 µg/mL (≈ 563 µM) | 128 µg/mL (≈ 282 µM) | 16 µg/mL (≈ 35.2 µM) | 512 µg/mL (≈ 1130 µM) | Ratio [21]: 2
CCCCCCCn1c(-c2cc(-c3ccc(F)cc3)nc(N)n2)nc2ccccc21 | 16 µg/mL (≈ 39.7 µM) | 256 µg/mL (≈ 634 µM) | 16 µg/mL (≈ 39.7 µM) | 16 µg/mL (≈ 39.7 µM) | 512 µg/mL (≈ 1270 µM) | – | 512 µg/mL (≈ 1270 µM) | – | 512 µg/mL (≈ 1270 µM) | – | 512 µg/mL (≈ 1270 µM) | – | – | 16 µg/mL (≈ 39.7 µM) | 256 µg/mL (≈ 634 µM) | 16 µg/mL (≈ 39.7 µM) | 2 µg/mL (≈ 4.96 µM) | 8 µg/mL (≈ 19.8 µM) | 16 µg/mL (≈ 39.7 µM) | 128 µg/mL (≈ 317 µM) | –
CCCCCCCCn1c(-c2cc(-c3ccc(C)cc3)nc(N)n2)nc2ccccc21 | 128 µg/mL (≈ 310 µM) | 512 µg/mL (≈ 1240 µM) | 512 µg/mL (≈ 1240 µM) | 512 µg/mL (≈ 1240 µM) | 512 µg/mL (≈ 1240 µM) | – | 512 µg/mL (≈ 1240 µM) | – | 512 µg/mL (≈ 1240 µM) | – | 512 µg/mL (≈ 1240 µM) | – | – | 8 µg/mL (≈ 19.3 µM) | 128 µg/mL (≈ 310 µM) | 512 µg/mL (≈ 1240 µM) | 512 µg/mL (≈ 1240 µM) | 16 µg/mL (≈ 38.7 µM) | 16 µg/mL (≈ 38.7 µM) | 512 µg/mL (≈ 1240 µM) | –
Cc1ccc(/C=C/C(=O)c2nc3ccccc3[nH]2)cc1 | 8 µg/mL (≈ 30.5 µM) | 8 µg/mL (≈ 30.5 µM) | 16 µg/mL (≈ 61 µM) | 2 µg/mL (≈ 7.62 µM) | 4 µg/mL (≈ 15.2 µM) | – | 32 µg/mL (≈ 122 µM) | – | 8 µg/mL (≈ 30.5 µM) | – | 16 µg/mL (≈ 61 µM) | – | – | 8 µg/mL (≈ 30.5 µM) | 4 µg/mL (≈ 15.2 µM) | 4 µg/mL (≈ 15.2 µM) | 16 µg/mL (≈ 61 µM) | 16 µg/mL (≈ 61 µM) | 16 µg/mL (≈ 61 µM) | 4 µg/mL (≈ 15.2 µM) | –
